{
  "source": "patent US6482822B1",
  "about": "“N-(iminomethyl)amines derivatives, their preparation, their use as medicines and compositions containing them” (Societe de Conseils de Recherches et d'Applications …, priority 1998, dated 2002)",
  "note": "Structures can show the parent of a compound that is named as a salt.",
  "data": [
    {"compound": "NC(=Nc1ccc(CCCC(=O)Nc2ccc3[nH]c4ccccc4c3c2)cc1)c1cccs1", "note": "(as salt: hydrochloride) [Example 18, 4-(4-{[Amino(2-thienyl)methylidene]amino}phenyl)-N-(9H-carbazol-3-yl)butanamide Hydrochloride]", "values": [
      {"measurement": "melting point", "result": "> 250", "unit": "°C"}
    ]}
  ]
}
